Measured values from patent US20050282743A1, “Molecular interactions in cells” (Arbor Vita Corporation, priority 2001, published 2005).
Ends that are not written are not given here. Peptide text beside a SMILES is read from it. * marks the point of attachment. Biotin = O=C1N[C@H]2[C@H](CS[C@H]2CCCCC(=O)*)N1

What was measured:
Assay in all cases: G' assay (10 uM PL peptide), results of TABLE 7 and TABLE 12
Type in all cases: binding
[1] = biological target: T1, PDZ protein (GST-PDZ fusion) (Homo sapiens, UniProt Q02410)
T1 construct: made in house; host or cells: E. coli (DH5alpha, BL21 or JM109)
T1 sequence (Q02410 1-837): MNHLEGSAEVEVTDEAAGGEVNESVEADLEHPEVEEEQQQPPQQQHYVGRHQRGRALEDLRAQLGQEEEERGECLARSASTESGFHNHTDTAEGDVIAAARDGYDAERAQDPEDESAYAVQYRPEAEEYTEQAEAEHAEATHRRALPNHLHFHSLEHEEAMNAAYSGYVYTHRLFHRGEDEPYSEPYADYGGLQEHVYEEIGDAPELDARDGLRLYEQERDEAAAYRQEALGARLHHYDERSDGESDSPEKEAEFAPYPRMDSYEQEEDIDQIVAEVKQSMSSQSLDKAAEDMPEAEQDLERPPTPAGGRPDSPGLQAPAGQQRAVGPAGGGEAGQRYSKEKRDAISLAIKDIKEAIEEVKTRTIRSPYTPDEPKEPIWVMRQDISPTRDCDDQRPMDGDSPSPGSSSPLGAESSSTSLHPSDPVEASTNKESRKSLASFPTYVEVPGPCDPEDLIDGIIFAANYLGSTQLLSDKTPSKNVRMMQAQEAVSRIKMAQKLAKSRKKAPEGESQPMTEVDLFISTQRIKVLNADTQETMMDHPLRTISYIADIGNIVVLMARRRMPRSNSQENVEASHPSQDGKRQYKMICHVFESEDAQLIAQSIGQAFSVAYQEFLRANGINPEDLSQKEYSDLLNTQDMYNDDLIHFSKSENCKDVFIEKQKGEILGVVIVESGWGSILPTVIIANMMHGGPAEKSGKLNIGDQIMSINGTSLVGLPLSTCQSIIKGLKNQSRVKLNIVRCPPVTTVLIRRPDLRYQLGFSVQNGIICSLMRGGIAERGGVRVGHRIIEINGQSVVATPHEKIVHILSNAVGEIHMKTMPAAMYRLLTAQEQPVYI
Procedure, shortened: (§1)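 Same steps as the G-zero format, apart from a peptide concentration of 10 uM in place of 20 uM in step 2. Amino-terminally biotinylated PL peptides bind GST-PDZ fusions, and retained peptide is quantified by 450 nm absorbance.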

[2] = biological target: T2, PDZ protein (GST-PDZ fusion) (Homo sapiens, UniProt O75970)
T2 construct: made in house; host or cells: E. coli (DH5alpha, BL21 or JM109)
T2 sequence (O75970 whole entry, the tested form may be a part): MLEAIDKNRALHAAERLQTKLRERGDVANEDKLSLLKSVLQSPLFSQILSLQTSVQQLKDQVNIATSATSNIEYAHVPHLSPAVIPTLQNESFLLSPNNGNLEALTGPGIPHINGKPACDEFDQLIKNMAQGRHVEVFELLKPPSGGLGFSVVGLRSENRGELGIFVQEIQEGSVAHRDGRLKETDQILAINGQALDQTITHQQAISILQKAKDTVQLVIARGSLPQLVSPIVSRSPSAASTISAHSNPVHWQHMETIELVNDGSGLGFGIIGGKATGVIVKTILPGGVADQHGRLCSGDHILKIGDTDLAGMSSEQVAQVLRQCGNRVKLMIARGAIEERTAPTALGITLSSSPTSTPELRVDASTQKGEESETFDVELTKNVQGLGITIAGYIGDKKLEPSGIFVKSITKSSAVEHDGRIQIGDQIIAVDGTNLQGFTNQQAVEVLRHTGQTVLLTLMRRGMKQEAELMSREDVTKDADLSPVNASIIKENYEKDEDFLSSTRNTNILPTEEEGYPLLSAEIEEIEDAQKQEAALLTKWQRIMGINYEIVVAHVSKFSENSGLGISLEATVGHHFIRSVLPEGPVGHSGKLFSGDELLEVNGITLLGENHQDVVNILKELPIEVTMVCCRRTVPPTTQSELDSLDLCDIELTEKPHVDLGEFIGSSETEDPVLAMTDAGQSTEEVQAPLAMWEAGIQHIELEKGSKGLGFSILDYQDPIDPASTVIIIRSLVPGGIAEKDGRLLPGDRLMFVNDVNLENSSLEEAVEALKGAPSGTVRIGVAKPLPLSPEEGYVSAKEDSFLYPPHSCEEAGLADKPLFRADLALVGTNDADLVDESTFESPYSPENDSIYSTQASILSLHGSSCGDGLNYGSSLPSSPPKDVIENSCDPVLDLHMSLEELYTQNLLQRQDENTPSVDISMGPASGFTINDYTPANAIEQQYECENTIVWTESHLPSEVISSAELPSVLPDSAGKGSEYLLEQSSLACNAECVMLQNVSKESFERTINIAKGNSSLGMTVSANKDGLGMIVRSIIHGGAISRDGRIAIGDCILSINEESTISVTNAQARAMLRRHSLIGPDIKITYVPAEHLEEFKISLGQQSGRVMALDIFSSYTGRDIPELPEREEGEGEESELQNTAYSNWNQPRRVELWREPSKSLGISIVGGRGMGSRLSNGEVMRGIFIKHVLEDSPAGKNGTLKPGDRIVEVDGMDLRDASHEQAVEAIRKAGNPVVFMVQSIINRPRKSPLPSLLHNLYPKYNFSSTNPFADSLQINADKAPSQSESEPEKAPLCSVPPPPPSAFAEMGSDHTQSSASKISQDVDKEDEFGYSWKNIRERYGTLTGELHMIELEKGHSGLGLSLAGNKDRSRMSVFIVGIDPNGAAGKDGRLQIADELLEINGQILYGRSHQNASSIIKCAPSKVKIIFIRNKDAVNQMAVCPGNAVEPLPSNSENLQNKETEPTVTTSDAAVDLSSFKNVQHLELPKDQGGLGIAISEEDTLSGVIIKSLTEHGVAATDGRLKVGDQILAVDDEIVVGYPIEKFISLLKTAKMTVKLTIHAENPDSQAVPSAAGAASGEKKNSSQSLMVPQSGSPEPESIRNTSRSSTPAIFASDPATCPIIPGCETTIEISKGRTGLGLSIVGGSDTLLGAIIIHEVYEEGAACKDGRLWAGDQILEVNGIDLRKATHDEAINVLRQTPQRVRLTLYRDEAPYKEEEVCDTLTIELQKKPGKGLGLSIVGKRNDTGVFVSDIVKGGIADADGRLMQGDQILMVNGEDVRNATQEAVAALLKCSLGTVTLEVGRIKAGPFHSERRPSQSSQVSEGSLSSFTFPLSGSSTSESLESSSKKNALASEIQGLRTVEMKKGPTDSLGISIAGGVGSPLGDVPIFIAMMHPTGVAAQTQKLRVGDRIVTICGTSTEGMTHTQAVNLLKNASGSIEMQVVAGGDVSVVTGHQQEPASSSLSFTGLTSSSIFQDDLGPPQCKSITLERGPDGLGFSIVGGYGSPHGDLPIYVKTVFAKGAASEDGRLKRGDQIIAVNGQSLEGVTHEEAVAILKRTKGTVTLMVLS
Procedure, shortened: as §1

[3] = biological target: T3, PDZ protein (GST-PDZ fusion) (Homo sapiens, UniProt Q96JH8); conditions: PDZ FLJ 10324, PDZ Domain 1
T3 construct: made in house; host or cells: E. coli (DH5alpha, BL21 or JM109)
T3 sequence (Q96JH8 1-1075): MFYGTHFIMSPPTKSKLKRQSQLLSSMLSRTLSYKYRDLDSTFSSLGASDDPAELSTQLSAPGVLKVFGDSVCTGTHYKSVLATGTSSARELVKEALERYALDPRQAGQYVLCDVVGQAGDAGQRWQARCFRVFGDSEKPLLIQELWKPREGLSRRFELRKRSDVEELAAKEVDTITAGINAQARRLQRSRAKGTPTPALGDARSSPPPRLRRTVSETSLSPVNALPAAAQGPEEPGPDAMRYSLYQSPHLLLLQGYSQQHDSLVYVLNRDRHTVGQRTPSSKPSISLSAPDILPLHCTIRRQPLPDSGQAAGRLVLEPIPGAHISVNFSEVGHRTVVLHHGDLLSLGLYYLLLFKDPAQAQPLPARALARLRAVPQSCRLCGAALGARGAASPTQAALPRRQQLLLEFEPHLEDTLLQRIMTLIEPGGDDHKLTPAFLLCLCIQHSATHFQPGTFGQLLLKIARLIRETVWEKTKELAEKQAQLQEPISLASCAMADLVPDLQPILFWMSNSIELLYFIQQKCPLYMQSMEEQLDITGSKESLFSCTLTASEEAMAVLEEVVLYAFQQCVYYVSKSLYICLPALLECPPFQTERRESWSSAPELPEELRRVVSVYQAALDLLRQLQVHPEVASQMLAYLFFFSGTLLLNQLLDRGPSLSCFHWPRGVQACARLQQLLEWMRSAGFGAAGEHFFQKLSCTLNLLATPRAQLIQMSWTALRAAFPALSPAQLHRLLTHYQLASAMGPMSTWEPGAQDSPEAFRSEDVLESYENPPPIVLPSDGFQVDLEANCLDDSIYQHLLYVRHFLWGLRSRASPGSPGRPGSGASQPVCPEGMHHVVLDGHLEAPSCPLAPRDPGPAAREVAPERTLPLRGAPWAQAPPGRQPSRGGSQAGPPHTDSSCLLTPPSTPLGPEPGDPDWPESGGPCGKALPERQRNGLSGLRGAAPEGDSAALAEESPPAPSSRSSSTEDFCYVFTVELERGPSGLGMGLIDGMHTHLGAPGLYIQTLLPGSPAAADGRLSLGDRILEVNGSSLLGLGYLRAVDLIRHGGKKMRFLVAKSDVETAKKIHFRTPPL
Procedure, shortened: as §1

Compound	Classification ([1]; PDZ Mint 1, PDZ Domain 1, 2)	Classification ([1]; PDZ Mint 1, PDZ Domain 2)	Classification ([2]; PDZ MUPP-1, PDZ Domain 13)	Classification ([2]; PDZ MUPP-1, PDZ Domain 10)	other results
A2AC_HUMAN (Modified) (Biotin-DFRPSFKHILFRRARRGFRQ; not fully specified)	–	3 (A450 nm 2-3)	–	–	Classification ([2]; PDZ MUPP-1, PDZ Domain 4): 3 (A450 nm 2-3)
CC[C@H](C)[C@H](NC(=O)[C@H](CC(=O)O)NC(=O)[C@H](CCC(=O)O)NC(=O)[C@H](CCCNC(=N)N)NC(=O)[C@@H](NC(=O)CCCC[C@@H]1SC[C@@H]2NC(=O)N[C@@H]21)[C@@H](C)O)C(=O)N[C@@H](Cc1ccc(O)cc1)C(=O)N[C@H](C(=O)N[C@@H](CC(N)=O)C(=O)N[C@@H](Cc1ccc(O)cc1)C(=O)N1CCC[C@H]1C(=O)N[C@H](C(=O)N[C@@H](Cc1ccccc1)C(=O)N[C@@H](CO)C(=O)N[C@@H](CCCNC(=N)N)C(=O)N[C@@H](CCCNC(=N)N)C(=O)N1CCC[C@H]1C(=O)N[C@@H](CCCCN)C(=O)N[C@H](C(=O)N[C@@H](CCCNC(=N)N)C(=O)N[C@H](C(=O)O)C(C)C)[C@@H](C)O)[C@@H](C)O)C(C)C [DNAM-1] (Biotin-TREDIYVNYPTFSRRPKTRV-OH; C-terminus assumed)	–	–	–	4 (A450 nm 3-4)	–
LNETTETQRTLLNGDLQTSI (Biotin-LNETTETQRTLLNGDLQTSI) [SSTR2 (somatostatin recepor 2)]	1 (A450 nm 0-1)	1 (A450 nm 0-1)	–	–	–
SLKPGTVLPPPPYRHRNTVV (Biotin-SLKPGTVLPPPPYRHRNTVV) [ErbB-4 receptor]	–	–	–	–	Classification [3]: 1 (A450 nm 0-1)
CC(C)C[C@H](NC(=O)[C@H](CCCNC(=N)N)NC(=O)CNC(=O)CNC(=O)[C@H](CCCNC(=N)N)NC(=O)[C@H](C)NC(=O)[C@@H]1CCCN1C(=O)[C@H](CCCNC(=N)N)NC(=O)CNC(=O)CNC(=O)[C@@H](NC(=O)[C@H](C)NC(=O)CCCC[C@@H]1SC[C@@H]2NC(=O)N[C@@H]21)C(C)C)C(=O)N[C@@H](CCC(N)=O)C(=O)NCC(=O)N[C@@H](CCCNC(=N)N)C(=O)N[C@@H](CCCNC(=N)N)C(=O)N[C@@H](CCC(N)=O)C(=O)N[C@H](C(=O)N[C@@H](CCC(N)=O)C(=O)N[C@H](C(=O)O)C(C)C)[C@@H](C)O [HPV E6 58 (modified)] (Biotin-AVGGRPARGGRLQGRRQTQV-OH; C-terminus assumed)	–	1 (A450 nm 0-1)	1 (A450 nm 0-1)	3 (A450 nm 2-3)	–
CC(C)C[C@H](NC(=O)[C@H](C)NC(=O)[C@@H](NC(=O)[C@H](CCC(=O)O)NC(=O)[C@H](CCCNC(=N)N)NC(=O)[C@H](CCCNC(=N)N)NC(=O)CNC(=O)[C@H](CCC(N)=O)NC(=O)[C@H](CC(C)C)NC(=O)[C@H](CCCNC(=N)N)NC(=O)CNC(=O)CNC(=O)[C@H](CCCNC(=N)N)NC(=O)[C@H](C)NC(=O)[C@H](CO)NC(=O)[C@H](CCCNC(=N)N)NC(=O)CNC(=O)CNC(=O)[C@H](C)NC(=O)[C@H](C)NC(=O)CCCC[C@@H]1SC[C@@H]2NC(=O)N[C@@H]21)[C@@H](C)O)C(=O)O [HPV E6 33 (modified)] (Biotin-AAGGRSARGGRLQGRRETAL-OH; C-terminus assumed)	–	1 (A450 nm 0-1)	2 (A450 nm 1-2)	–	–
CC[C@H](C)[C@H](NC(=O)[C@H](CO)NC(=O)[C@@H](NC(=O)[C@H](Cc1ccccc1)NC(=O)[C@H](CO)NC(=O)CCCC[C@@H]1SC[C@@H]2NC(=O)N[C@@H]21)[C@@H](C)O)C(=O)N[C@@H](CC(C)C)C(=O)N[C@H](C(=O)N[C@@H](CS)C(=O)N[C@@H](Cc1c[nH]cn1)C(=O)N[C@@H](CCC(N)=O)C(=O)N[C@@H](CCCNC(=N)N)C(=O)N[C@@H](CCCNC(=N)N)C(=O)N[C@H](C(=O)N[C@@H](CCC(N)=O)C(=O)N[C@@H](CCCNC(=N)N)C(=O)N[C@@H](CCCCN)C(=O)N[C@@H](CCC(=O)O)C(=O)N[C@H](C(=O)N[C@H](C(=O)N[C@@H](C)C(=O)O)C(C)C)[C@@H](C)O)[C@@H](C)O)[C@@H](C)O [GluR5-2 (rat)]	–	–	–	2 (A450 nm 1-2)	Classification ([2]; PDZ MUPP-1, PDZ Domain 11): 1 (A450 nm 0-1)
APC—adenomatous polyposis coli protein (ESSGTQSPKRHSGSYLVTSV)	–	–	–	1 (A450 nm 0-1)	–

Second part, led by results:

Classification ([1]; PDZ Mint 1, PDZ Domain 1, 2)	Classification ([1]; PDZ Mint 1, PDZ Domain 2)	Classification ([2]; PDZ MUPP-1, PDZ Domain 13)	Compound	Classification ([2]; PDZ MUPP-1, PDZ Domain 10)	other results
3 (A450 nm 2-3)	3 (A450 nm 2-3)	–	CC[C@H](C)[C@H](NC(=O)CNC(=O)[C@H](CO)NC(=O)[C@H](Cc1ccccc1)NC(=O)[C@@H](NC(=O)[C@H](CS)NC(=O)CNC(=O)CNC(=O)[C@H](C)NC(=O)[C@@H]1CCCN1C(=O)[C@@H](NC(=O)[C@@H]1CCCN1C(=O)CCCC[C@@H]1SC[C@@H]2NC(=O)N[C@@H]21)[C@@H](C)CC)[C@@H](C)O)C(=O)N[C@@H](Cc1ccccc1)C(=O)N1CCC[C@H]1C(=O)N[C@H](C(=O)N[C@@H](CC(C)C)C(=O)N[C@H](C(=O)N[C@@H](CO)C(=O)N1CCC[C@H]1C(=O)N[C@@H](CC(C)C)C(=O)O)[C@@H](C)O)[C@@H](C)O [KIA 1481] (Biotin-PIPAGGCTFSGIFPTLTSPL-OH; C-terminus assumed)	–	–
1 (A450 nm 0-1)	1 (A450 nm 0-1)	5 (A450 nm of 4 more than 2× repeated)	TQGFPGPATWRRISSLESEV	1 (A450 nm 0-1)	Classification ([2]; PDZ MUPP-1, PDZ Domain 5): 1 (A450 nm 0-1)
1 (A450 nm 0-1)	–	–	CKR5_HUMAN (ERASSVYTRSTGEQEISVGL)	–	–
–	2 (A450 nm 1-2)	2 (A450 nm 1-2)	VHDAESSDEDGYDWGPATDL (Biotin-VHDAESSDEDGYDWGPATDL) [zona occludens 3 (ZO-3)]	–	Classification ([2]; PDZ MUPP-1, PDZ Domain 7): 1 (A450 nm 0-1); Classification ([2]; PDZ MUPP-1, PDZ Domain 9): 1 (A450 nm 0-1)
1 (A450 nm 0-1)	1 (A450 nm 0-1)	–	CC(C)C[C@H](NC(=O)[C@H](CC(=O)O)NC(=O)[C@H](CO)NC(=O)[C@H](CCC(=O)O)NC(=O)CNC(=O)[C@H](Cc1ccc(O)cc1)NC(=O)[C@H](CC(C)C)NC(=O)[C@H](C)NC(=O)[C@H](CO)NC(=O)[C@H](CO)NC(=O)[C@H](Cc1ccccc1)NC(=O)[C@H](C)NC(=O)[C@H](C)NC(=O)[C@H](Cc1ccc(O)cc1)NC(=O)[C@H](CC(=O)O)NC(=O)[C@H](CC(C)C)NC(=O)[C@H](C)NC(=O)CNC(=O)[C@@H]1CCCN1C(=O)[C@@H](NC(=O)CCCC[C@@H]1SC[C@@H]2NC(=O)N[C@@H]21)C(C)C)C(=O)O [a-actinin 2] (Biotin-VPGALDYAAFSSALYGESDL-OH; C-terminus assumed)	–	–
2 (A450 nm 1-2)	2 (A450 nm 1-2)	–	KTMPAATYRLLTGQEQPVYL (Biotin-KTMPAATYRLLTGQEQPVYL) [MINT-3]	–	Classification ([2]; PDZ MUPP-1, PDZ Domain 3): 1 (A450 nm 0-1); Classification ([2]; PDZ MUPP-1, PDZ Domain 11): 2 (A450 nm 1-2)
1 (A450 nm 0-1)	–	–	RNIEEVYVGGKQVVPFSSSV (Biotin-RNIEEVYVGGKQVVPFSSSV) [Nedasin (s-form)]	–	–
–	–	1 (A450 nm 0-1)	ARHRVTSYTSSSVNVSSNL (Biotin-ARHRVTSYTSSSVNVSSNL) [IL-8RB]	–	–
